Experimental data: patent US20260008746A1, “CATIONIC LIPID COMPOUND WITH HIGH EFFICIENCY, LOW TOXICITY AND STABLE EXPRESSION, AND COMPOSITION COMPRISNG SAME” (HANGZHOU TIANLONG PHARMACEUTICAL CO., LTD, priority 2023, published 2026)
Where “and” joins values, the source holds several entries; their conditions need not be identical. Equal values may be shown once.

How the values were obtained:
293T cells [1] = experiment: Fluorescent detection of Fluc-mRNA (cell transfection efficiency of LNP formulations); type: cell-based; conditions: for Relative light unit (RLU): LNP formulation containing 0.3 μg Fluc-mRNA, 96-well plate, 24 hours; for Multiples (YK-101): RLU of YK-101 / RLU of named substance; for Multiples (YK-107): RLU of YK-107 / RLU of named substance; for Multiples (YK-108): RLU of YK-108 / RLU of named substance; for fluorescence absorption value, times that of HHMA: RLU of named substance / RLU of HHMA; for fluorescence absorption value, times that of Lipofectamine 3000: RLU of named substance / RLU of Lipofectamine 3000; for Ratio relative to SM-102: RLU of named substance / RLU of SM-102; for Fluc-mRNA expression signal intensity, times that of compound 21: RLU of named substance / RLU of compound 21; for fluorescence absorption value, times that of compound 23: RLU of named substance / RLU of compound 23
Description: (§1) Cell recovery and passage: 293T cells were recovered, cultured in a culture dish, and passaged to the required number of cells.
(§2) Seeding plate: The cells in the culture dish were digested and counted. Cells were spread in a 96-well plate at 10,000 cells per well and in a 12-well plate at 150,000 cells per well. Cells were cultured overnight until the cells adhered to the wall.
Cell recovery and passage: the method was the same as in Example 3.
Seeding plate: the method was the same as in Example 3.
An LNP formulation containing 0.3 μg of Fluc-mRNA (the carrier components of the LNP formulation were cationic lipid, neutral lipid, structured lipid and polymer-conjugated lipid with a molar ratio of 49:10:39.5:1.5, wherein the cationic lipid was listed in Table 1) was added to the cell culture medium of a 96-well plate, and further incubated for 24 hours. The corresponding reagent was added according to the instructions of the Gaussia Luciferase Assay Kit, and the fluorescence expression intensity of each well was detected by an IVIS fluorescence detection system. This test verified the transfection efficiencies of LNP formulations in cells, see Tables 3-6 for specific test results.

293T cells [2] = experiment: Cell survival rate determination (CCK-8); type: cell-based; conditions: for Cell survival rate (%): LNP formulation containing 1.5 μg Fluc-mRNA, 24 hours, CCK-8, absorbance at 450 nm; for cell survival rate lower than that of YK-101: cell survival rate of YK-101 minus that of named substance; for cell survival rate lower than that of YK-107: cell survival rate of YK-107 minus that of named substance; for cell survival rate lower than that of YK-108: cell survival rate of YK-108 minus that of named substance
Description: as §1, §2
An LNP formulation containing 1.5 μg of Fluc-mRNA (the cater component of the LNP formulation were cationic lipid, neutral lipid, structured lipid and polymer-conjugated lipid with a molar ratio of 49: 10: 39.5: 1.5, wherein the cationic lipid was listed in Table 1) and the formulation of Lipofectamine 3000 were added to the cell culture medium of a 96-well plate, and further cultivated for 24 hours. 10 μL of CCK-8 solution was then added to each well, and the culture plate was incubated in an incubator for 1 hour. The absorbance at 450 nm was measured by a microplate reader.

BALB/C mice = experiment: In vivo imaging of Fluc-mRNA expression in mice delivered by LNP formulations
Description: The LNP formulation containing […] Fluc-mRNA was injected intramuscularly into female BALB/C mice aged 4-6 weeks old and weighed 17-19 g, and the mice were intraperitoneally injected with fluorescent imaging substrate at specific time points after administration (6h, 24 h, 48h and 7d), where the mice were allowed to move freely for 5 minutes, and then the average radiation intensity (corresponding to fluorescence expression intensity) of the protein expression of the mRNA carried by the LNP in the mice was detected by the IVIS Spectrum small animal in vivo imaging device. The test results are shown in Tables 11 to 14 and FIGS. 12 to 14.

| Compound | Relative light unit (RLU) (293T cells [1]) | Multiples (YK-101) (293T cells [1]) | Multiples (YK-107) (293T cells [1]) | Multiples (YK-108) (293T cells [1]) | fluorescence absorption value, times that of HHMA (293T cells [1]) [times] | fluorescence absorption value, times that of Lipofectamine 3000 (293T cells [1]) [times] | Ratio relative to SM-102 (293T cells [1]) | Fluc-mRNA expression signal intensity, times that of compound 21 (293T cells [1]) [times] | fluorescence absorption value, times that of compound 23 (293T cells [1]) [times] | Cell survival rate (%) (293T cells [2]) | cell survival rate lower than that of YK-101 (293T cells [2]) | cell survival rate lower than that of YK-107 (293T cells [2]) | cell survival rate lower than that of YK-108 (293T cells [2]) | also measured |
| --- | --- | --- | --- | --- | --- | --- | --- | --- | --- | --- | --- | --- | --- | --- |
| CCCCCCCCC(CCCCCCCC)COC(=O)CCCCCN(CCO)CCCCCC(=O)OCCCSSCCCCC [YK-111] | 1328301 | 15.31 | 16.83 | 18.57 | 0.65 | 1.24 | 0.87 | 0.96 | 1.03 | 75.76 | 14.36% | 14.69% | 14.10% | cell transfection efficiency, times that of YK-110 (293T cells [1]): 5 times; average radiation intensity of YK-101, times that of named substance (BALB/C mice; 6 h): 2.3 times; average radiation intensity of YK-107, times that of named substance (BALB/C mice; 6 h): 2.4 times; average radiation intensity of YK-108, times that of named substance (BALB/C mice; 6 h): 3.0 times; average radiation intensity of YK-101, times that of named substance (BALB/C mice; 24 h): 10.6 times; average radiation intensity of YK-107, times that of named substance (BALB/C mice; 24 h): 13.1 times; average radiation intensity of YK-108, times that of named substance (BALB/C mice; 24 h): 14.1 times; average radiation intensity of YK-101, times that of named substance (BALB/C mice; 48 h): 9.2 times; average radiation intensity of YK-107, times that of named substance (BALB/C mice; 48 h): 11.1 times; average radiation intensity of YK-108, times that of named substance (BALB/C mice; 48 h): 11.3 times; average radiation intensity of YK-101, times that of named substance (BALB/C mice; 7 d): 2.4 times; average radiation intensity of YK-107, times that of named substance (BALB/C mice; 7 d): 2.6 times; average radiation intensity of YK-108, times that of named substance (BALB/C mice; 7 d): 2.8 times; average radiation intensity, 6 h (BALB/C mice; LNP containing 10 pg Fluc-mRNA, intramuscular, female BALB/C mice, 6 h): 661800; average radiation intensity, 24 h (BALB/C mice; LNP containing 10 pg Fluc-mRNA, intramuscular, female BALB/C mice, 24 h): 99777; average radiation intensity, 48 h (BALB/C mice; LNP containing 10 pg Fluc-mRNA, intramuscular, female BALB/C mice, 48 h): 20312; average radiation intensity, 7 d (BALB/C mice; LNP containing 10 pg Fluc-mRNA, intramuscular, female BALB/C mice, 7 d): 5050 |
| CCCCCCC(CCCCCC)CCOC(=O)CCCCCN(CCO)CCCCCC(=O)OCCSCCCC [YK-112, 3-hexylnonyl-6-(6-(2-(butylthio)ethoxy)-6-oxohexyl)((2-hydroxyethyl)amino)hexanoate] | 2012 |  |  |  | 0.0010 | 0.0019 | 0.0013 | 0.0014 | 0.0016 | 9.82 | 80.30% and 80% | 80.63% and 80% | 80.04% and 80% |  |
| CCCCCCC(CCCCCC)CCOC(=O)CCCCCN(CCO)CCCCCC(=O)OCCCSSCCCCC [YK-110] | 271783 | 74.82 | 82.28 | 90.74 | 0.13 | 0.25 | 0.18 | 0.20 | 0.21 | 42.85 | 40% | 40% | 40% |  |
| CCCCCCCCCCOC(=O)CCCN(CCCCCC(=O)OCCC(CCCCCC)CCCCCC)C[C@H](C)O [YK-117, 3-hexylnonyl 6-(4-(decyloxy)-4-oxobutyl)(((S)2-hydroxypropyl)amino)hexanoate] | 695716 | 29.23 | 32.14 | 35.45 | 0.34 | 0.65 | 0.45 | 0.50 | 0.54 | 57.93 | 32.19% | 32.52% | 31.93% | cell transfection efficiency, times that of YK-118 (293T cells [1]): 33 times; cell transfection efficiency, times that of YK-119 (293T cells [1]): 80 times |
| CCCCCCCCC(CCCCCCCC)COC(=O)CCCCCN(CCO)CCCCCC(=O)OCCSCCCC [YK-113, 2-octyldecyl 6-(6-(2-(butylthio)ethoxy)-6-oxohexyl)((2-hydroxyethyl)amino)hexanoate] | 151694 | 134.05 |  | 162.57 | 0.07 | 0.14 | 0.10 | 0.11 | 0.12 | 43.05 | 47.07% and 40% | 47.40% and 40% | 46.81% and 40% | cell transfection activity, times that of YK-112 (293T cells [1]): up to 75 times |
| CCCCCCCCCCOC(=O)CCCN(CCCCCC(=O)OCCC(CCCCCC)CCCCCC)CCC(C)O (centres unmarked) [YK-118, 3-hexylnonyl 6-(4-(decyloxy)-4-oxobutyl)((3-hydroxybutyl)amino)hexanoate] | 21310 |  | 1049.33 | 1157.23 | 0.0104 | 0.0199 | 0.0139 | 0.0153 | 0.0165 | 63.33 | 26.79% | 27.12% | 26.53% |  |
| CCCCCCCCCCOC(=O)CCCN(CCCCCC(=O)OCCC(CCCCCC)CCCCCC)CCC(C)(C)O [YK-119, 3-hexylnonyl 6-(4-(decyloxy)-4-oxobutyl)((3-hydroxy-3-methylbutyl)amino)hexanoate] | 8557 |  |  |  | 0.0042 | 0.0080 | 0.0056 | 0.0062 | 0.0066 | 80.27 | 9.85% | 10.18% | 9.59% |  |
| CCCCCCCCCCOC(=O)CCCN(CCCCCC(=O)OCCC(CCCCCC)CCCCCC)C[C@H](O)CO [YK-116, 3-hexylnonyl 6-(4-(decyloxy)-4-oxobutyl)(((S)-2,3-dihydroxypropyl)amino)hexanoate] | 1321284 | 15.39 | 16.92 | 18.66 | 0.65 | 1.23 | 0.86 | 0.95 | 1.02 | 67.96 | 22.16% | 22.49% | 21.90% |  |
